These results are taken from PubChem BioAssay AID330 (DTP/NCI, 2004).

The subject of this assay is P388 leukemia ip, CD2F1 mice, survival T/C. Put plainly: NCI In Vivo Anticancer Drug Screen. Data for tumor model P388 Leukemia (intraperitoneal) in CD2F1 (CDF1) mice. As to conditions: endpoint: median survival time, higher = longer survival. An outline of the steps: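 Mice carrying the transplanted tumor received test compound or vehicle. Survival was recorded in each group, and the value is the treated-group measurement divided by that of the vehicle-treated control group.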

The mark [1] stands for this setting: dose: 60.0 mg/kg/injection, schedule: Q01DX005 (ip), vehicle: Klucel (hydroxypropylcellulose) (HPC).
Setting [2] is: dose: 120.0 mg/kg/injection, schedule: Q01DX005 (ip), vehicle: Klucel (hydroxypropylcellulose) (HPC).
Setting [3] is: dose: 240.0 mg/kg/injection, schedule: Q01DX005 (ip), vehicle: Klucel (hydroxypropylcellulose) (HPC).
Where [4] appears, read: dose: 50.0 mg/kg/injection, schedule: Q01DX005 (ip), vehicle: Klucel (hydroxypropylcellulose) (HPC).
[5] abbreviates: dose: 100.0 mg/kg/injection, schedule: Q01DX005 (ip), vehicle: Klucel (hydroxypropylcellulose) (HPC).
Where [6] appears, read: dose: 200.0 mg/kg/injection, schedule: Q01DX005 (ip), vehicle: Klucel (hydroxypropylcellulose) (HPC).
[7] abbreviates: dose: 50.0 mg/kg/injection, schedule: Q01DX005 (ip), vehicle: saline with Tween-80.
Setting [8] is: dose: 100.0 mg/kg/injection, schedule: Q01DX005 (ip), vehicle: saline with Tween-80.
The mark [9] stands for this setting: dose: 200.0 mg/kg/injection, schedule: Q01DX005 (ip), vehicle: saline with Tween-80.
Setting [10] is: dose: 100.0 mg/kg/injection, schedule: Q04DX002 (ip), vehicle: saline.
[11] abbreviates: dose: 200.0 mg/kg/injection, schedule: Q04DX002 (ip), vehicle: saline.
The mark [12] stands for this setting: dose: 400.0 mg/kg/injection, schedule: Q04DX002 (ip), vehicle: saline.
[13] abbreviates: dose: 60.0 mg/kg/injection, schedule: Q01DX005 (ip), vehicle: saline with Tween-80.
[14] abbreviates: dose: 120.0 mg/kg/injection, schedule: Q01DX005 (ip), vehicle: saline with Tween-80.
[15] abbreviates: dose: 240.0 mg/kg/injection, schedule: Q01DX005 (ip), vehicle: saline with Tween-80.
Where [16] appears, read: dose: 1.25 mg/kg/injection, schedule: Q01DX009 (ip), vehicle: saline with Tween-80.
Setting [17] is: dose: 2.5 mg/kg/injection, schedule: Q01DX009 (ip), vehicle: saline with Tween-80.
[18] abbreviates: dose: 5.0 mg/kg/injection, schedule: Q01DX009 (ip), vehicle: saline with Tween-80.

The structures appear in SMILES notation. Where “and” joins values, the source holds several entries; their conditions need not be identical. Equal values may be shown once. Toxic doses and inconclusive results are not listed.

Take `COCN(C)N=Nc1ccc(C#N)cc1`: the T/C is, setting by setting: under setting [1], 100 % of control; under setting [2], 117 % of control; under setting [3], 117 % of control.
`c1ccc(-c2cnn3c(-c4ccccc4)cnnc23)cc1`: the T/C is 99 % of control under setting [4], 99 % of control under setting [5] and 99 % of control under setting [6].
In the case of `COC(=O)C1CCCN1C(=O)c1ccccc1` (stereo not drawn), the T/C is 114 % of control under setting [7], 93 % of control under setting [8] and 100 % of control under setting [9].
As to `Clc1nc(-c2ccccc2)nc(-c2ccccc2)n1`, the T/C by setting is: under setting [10], 104 % of control; under setting [11], 100 % of control; under setting [12], 109 % of control.
For `CC#CCOCC1CO1` (stereo not drawn), the T/C is 100 % of control (dose: 14.6 mg/kg/injection, schedule: Q01DX009 (ip), vehicle: saline); 109 % of control (dose: 22.0 mg/kg/injection, schedule: Q01DX009 (ip), vehicle: saline); 118 % of control (dose: 33.0 mg/kg/injection, schedule: Q01DX009 (ip), vehicle: saline); 118 % of control (dose: 50.0 mg/kg/injection, schedule: Q01DX009 (ip), vehicle: saline).
Consider `COc1ccc(C2OC(N)=C(O)C2=O)cc1OC` (stereo not drawn), for which the T/C is, setting by setting: under setting [1], 100 % of control; under setting [2], 91 % of control; under setting [3], 95 % of control.
Consider `COc1nsc2ccc(C(C)C(N)=O)cc12` (stereo not drawn), for which the T/C under setting [13] is 100 % of control, the T/C under setting [14] is 97 % of control and the T/C under setting [15] is 89 % of control.
As for `NC(=Nc1ccc(Cl)cc1)N/N=C/c1ccc2c(c1)Cc1ccccc1-2`, the T/C (dose: 25.0 mg/kg/injection, schedule: Q04DX002 (ip), vehicle: saline with Tween-80) is 106 % of control; the T/C (dose: 50.0 mg/kg/injection, schedule: Q04DX002 (ip), vehicle: saline with Tween-80) was 106 % of control; the T/C (dose: 100.0 mg/kg/injection, schedule: Q04DX002 (ip), vehicle: saline with Tween-80) was 107 % of control.
For the compound `CC(=O)NCCSSCCCCSSCCNC(C)=O`, the T/C under setting [4] is 112 % of control and the T/C under setting [5] is 112 % of control.
Consider `CC1OC(=O)/C(=C\N(C)C)C1=O` (stereo not drawn), for which the T/C was 105 % of control under setting [4], 111 % of control under setting [5] and 109 % of control under setting [6].
As to `CC1(C)S(=O)(=O)OCCOS1(=O)=O`, the T/C is 107 % of control (dose: 3.75 mg/kg/injection, schedule: Q01DX005 (ip), vehicle: Klucel (hydroxypropylcellulose) (HPC)); 107 % of control and 111 % of control and 115 % of control (dose: 7.5 mg/kg/injection, schedule: Q01DX005 (ip), vehicle: Klucel (hydroxypropylcellulose) (HPC)); 119 % of control (dose: 15.0 mg/kg/injection, schedule: Q01DX005 (ip), vehicle: Klucel (hydroxypropylcellulose) (HPC)).
On to `Nc1ncc2nc3c4ccccc4c(=O)cc-3oc2n1`, for which the T/C is, setting by setting: under setting [7], 96 % of control; under setting [8], 96 % of control; under setting [9], 91 % of control.
With `COC1=CC(=O)c2c(O)cc(OC)c(O)c2C1=O`, the T/C reads like this: (dose: 1.25 mg/kg/injection, schedule: Q01DX009 (ip), vehicle: saline + alcohol) 104 % of control; under setting [16], 117 % of control; (dose: 2.5 mg/kg/injection, schedule: Q01DX009 (ip), vehicle: saline + alcohol) 104 % of control; under setting [17], 115 % of control; (dose: 5.0 mg/kg/injection, schedule: Q01DX009 (ip), vehicle: saline + alcohol) 104 % of control; under setting [18], 110 % of control. The T/C (dose: 10.0 mg/kg/injection, schedule: Q01DX009 (ip), vehicle: saline + alcohol) is 106 % of control; the T/C (dose: 10.0 mg/kg/injection, schedule: Q01DX009 (ip), vehicle: saline with Tween-80) is 110 % of control; the T/C (dose: 20.0 mg/kg/injection, schedule: Q01DX009 (ip), vehicle: saline + alcohol) is 106 % of control; the T/C (dose: 20.0 mg/kg/injection, schedule: Q01DX009 (ip), vehicle: saline with Tween-80) is 106 % of control.
Take `O=[Se](=O)(O)O`: the T/C is 103 % of control (dose: 1.88 mg/kg/injection, schedule: Q01DX005 (ip), vehicle: saline); 109 % of control and 99 % of control (dose: 3.75 mg/kg/injection, schedule: Q01DX005 (ip), vehicle: saline); 113 % of control and 101 % of control (dose: 7.5 mg/kg/injection, schedule: Q01DX005 (ip), vehicle: saline); 86 % of control and 98 % of control (dose: 15.0 mg/kg/injection, schedule: Q01DX005 (ip), vehicle: saline).
As to `Cc1cc(Br)ccc1N=Nc1c(C)noc1C`, the T/C was 104 % of control under setting [10], 104 % of control under setting [11] and 101 % of control under setting [12].
In the case of `COc1cc(NS(C)(=O)=O)ccc1Nc1c2ccccc2nc2c(C)cccc12`, the T/C is, setting by setting: under setting [16], 155 % of control; under setting [17], 165 % of control; under setting [18], 87 % of control; (dose: 6.25 mg/kg/injection, schedule: Q01DX009 (ip), vehicle: Klucel (hydroxypropylcellulose) (HPC)) 97 % of control.
Regarding `c1ccc(C(=C2C(=C(c3ccccc3)c3ccccc3)c3nc4ccccc4nc32)c2ccccc2)cc1`, the T/C (dose: 7.5 mg/kg/injection, schedule: Q01DX005 (ip), vehicle: saline with Tween-80) was 90 % of control; the T/C (dose: 15.0 mg/kg/injection, schedule: Q01DX005 (ip), vehicle: saline with Tween-80) was 88 % of control; the T/C under setting [13] is 86 % of control; the T/C under setting [14] was 87 % of control; the T/C under setting [15] was 90 % of control.
Regarding `C=C1C(=O)O[C@@H]2CCC[C@H]12`, the T/C by setting is: (dose: 12.5 mg/kg/injection, schedule: Q01DX009 (ip), vehicle: water) 105 % of control; (dose: 25.0 mg/kg/injection, schedule: Q01DX009 (ip), vehicle: water) 112 % of control; (dose: 50.0 mg/kg/injection, schedule: Q01DX009 (ip), vehicle: water) 112 % of control; (dose: 100.0 mg/kg/injection, schedule: Q01DX009 (ip), vehicle: water) 108 % of control; (dose: 200.0 mg/kg/injection, schedule: Q01DX009 (ip), vehicle: water) 112 % of control.
On to `CC1(C)CC[C@H](C2=CC(=O)c3c(O)ccc(O)c3C2=O)O1`, for which the T/C reads like this: (dose: 1.25 mg/kg/injection, schedule: Q01DX009 (ip), vehicle: Klucel (hydroxypropylcellulose) (HPC)) 117 % of control; (dose: 2.5 mg/kg/injection, schedule: Q01DX009 (ip), vehicle: Klucel (hydroxypropylcellulose) (HPC)) 115 % of control; (dose: 5.0 mg/kg/injection, schedule: Q01DX009 (ip), vehicle: Klucel (hydroxypropylcellulose) (HPC)) 119 % of control; (dose: 10.0 mg/kg/injection, schedule: Q01DX009 (ip), vehicle: Klucel (hydroxypropylcellulose) (HPC)) 118 % of control.
`O=P1(NCCCNP2(=O)OC(CCl)=NC2c2ccccc2Cl)OC(CCl)=NC1c1ccccc1Cl` (stereo not drawn): the T/C (dose: 60.0 mg/kg/injection, schedule: Q01DX005 (ip), vehicle: saline) is 93 % of control; the T/C (dose: 120.0 mg/kg/injection, schedule: Q01DX005 (ip), vehicle: saline) is 98 % of control; the T/C (dose: 240.0 mg/kg/injection, schedule: Q01DX005 (ip), vehicle: saline) is 103 % of control.
For the compound `Nc1n[nH]c(N)c1N=Nc1ccccc1`, the T/C (dose: 50.0 mg/kg/injection, schedule: Q01DX009 (ip), vehicle: Klucel (hydroxypropylcellulose) (HPC)) was 98 % of control; the T/C (dose: 100.0 mg/kg/injection, schedule: Q01DX009 (ip), vehicle: Klucel (hydroxypropylcellulose) (HPC)) was 99 % of control; the T/C (dose: 200.0 mg/kg/injection, schedule: Q01DX009 (ip), vehicle: Klucel (hydroxypropylcellulose) (HPC)) was 93 % of control; the T/C (dose: 400.0 mg/kg/injection, schedule: Q01DX009 (ip), vehicle: Klucel (hydroxypropylcellulose) (HPC)) was 94 % of control.
